Patent publication EP0135429B1, “The synthesis of cyclopropane amino acids and peptides” (THE UNIVERSITY OF GEORGIA RESEARCH FOUNDATION, INC., priority 1983, dated 1992)
Peptide text beside a SMILES is read from it.

How the values were obtained:
α-chymotrypsin = α-chymotrypsin (Bos taurus, UniProt P00766); conditions: after 15 minutes at room temperature; 10:1 substrate:enzyme; 0.5 M ammonium acetate, pH 8
[1] = system: intestinal enzymes such as carboxypeptidase and chymotrypsin; assay: hydrolysis in the gastrointestinal tract or blood of the consumer; type: in vivo; conditions: after drinking a sweetened beverage

| Structure (SMILES) | hydrolysis by α-chymotrypsin (α-chymotrypsin) | does not hydrolyze cleave or break down in the gastrointestinal tract or blood [1] |
| --- | --- | --- |
| COC(=O)[C@H](Cc1ccccc1)NC(=O)[C@@H](N)CC(=O)O [aspartame] (H-Asp-Phe-OMe) | hydrolyzed | – |
| COC(=O)[C@H](Cc1ccccc1)NC(=O)C1(N)CC1C(=O)O (some centres unmarked) [Example XXXVIII, 1-Aminocyclopropane-2-carboxylic Acid-1-carboxyl Phenylalanine Methyl Ester] | – | at least 24 hours |
